# Laboratory results taken from ChEMBL document CHEMBL1201862, “PubChem BioAssay data set” (2004).
# Activity calls are given as the source filed them.
# Experiments:
# Cytochrome P450 3A4 = Cytochrome P450 3A4 (Homo sapiens, UniProt P08684); conditions: Potency;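 also: confirmatory qHTS run detecting inhibitors and substrates of CYP3A4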
# [1] = biological target: Heat shock protein HSP 90-alpha (Homo sapiens, UniProt P07900); assay type: functional, organism-based
# [2] = intracellular Trypanosoma cruzi inhibitors in host cells – cell-based, plate reader, cherry-pick samples, set 3, dose response (AID 651818); assay type: functional;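 also: compounds incubated with infected cells for about four days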
# [3] = biological target: T1, Short transient receptor potential channel 4 (Mus musculus, UniProt Q9QUQ5); experiment: block of DAMGO-driven TRPC4 calcium entry – cell-based, HEK293 TRPC4/mu-opioid, Fluo-4 calcium, dose response (AID 434942); assay type: functional;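 also: potency of inhibitors blocking the TRPC4 calcium response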
# T1 sequence (Q9QUQ5 whole entry): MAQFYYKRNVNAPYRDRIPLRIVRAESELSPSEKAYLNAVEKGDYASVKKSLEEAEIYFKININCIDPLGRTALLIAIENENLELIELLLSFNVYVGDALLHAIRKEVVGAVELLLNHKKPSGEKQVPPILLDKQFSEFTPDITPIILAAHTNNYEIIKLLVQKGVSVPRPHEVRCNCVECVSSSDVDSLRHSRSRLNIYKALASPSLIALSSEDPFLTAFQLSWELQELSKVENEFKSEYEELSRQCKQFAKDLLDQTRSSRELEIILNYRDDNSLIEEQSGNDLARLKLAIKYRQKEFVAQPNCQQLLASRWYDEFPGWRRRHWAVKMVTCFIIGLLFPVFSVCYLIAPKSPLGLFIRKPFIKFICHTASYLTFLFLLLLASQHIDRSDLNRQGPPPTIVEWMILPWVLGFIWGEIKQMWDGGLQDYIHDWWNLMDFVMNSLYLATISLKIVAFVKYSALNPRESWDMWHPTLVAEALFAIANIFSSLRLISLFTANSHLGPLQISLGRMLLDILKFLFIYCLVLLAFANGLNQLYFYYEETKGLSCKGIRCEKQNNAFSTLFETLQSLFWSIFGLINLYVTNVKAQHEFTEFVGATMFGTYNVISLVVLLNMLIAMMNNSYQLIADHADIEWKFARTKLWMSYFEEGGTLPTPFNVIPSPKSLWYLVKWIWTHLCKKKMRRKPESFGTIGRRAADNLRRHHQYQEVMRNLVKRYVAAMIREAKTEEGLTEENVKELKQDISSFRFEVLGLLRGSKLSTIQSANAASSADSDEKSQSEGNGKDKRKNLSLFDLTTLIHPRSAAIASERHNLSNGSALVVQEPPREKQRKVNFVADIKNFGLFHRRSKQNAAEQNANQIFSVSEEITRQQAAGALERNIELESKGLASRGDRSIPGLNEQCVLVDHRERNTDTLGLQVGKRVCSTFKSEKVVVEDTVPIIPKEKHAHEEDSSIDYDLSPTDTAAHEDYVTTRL
# [4] = biological target: T2, Microphthalmia-associated transcription factor (Homo sapiens, UniProt O75030); experiment: reducers of TRPM1 reporter luminescence, concentration series – cell-based, SK-MEL-5, cherry-picked, set 3, MITF inhibitor project, dose response (AID 493073); assay type: functional;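 also: SK-MEL-5 melanoma cells with luciferase driven by the MITF target TRPM1 promoter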
# T2 sequence (O75030 whole entry): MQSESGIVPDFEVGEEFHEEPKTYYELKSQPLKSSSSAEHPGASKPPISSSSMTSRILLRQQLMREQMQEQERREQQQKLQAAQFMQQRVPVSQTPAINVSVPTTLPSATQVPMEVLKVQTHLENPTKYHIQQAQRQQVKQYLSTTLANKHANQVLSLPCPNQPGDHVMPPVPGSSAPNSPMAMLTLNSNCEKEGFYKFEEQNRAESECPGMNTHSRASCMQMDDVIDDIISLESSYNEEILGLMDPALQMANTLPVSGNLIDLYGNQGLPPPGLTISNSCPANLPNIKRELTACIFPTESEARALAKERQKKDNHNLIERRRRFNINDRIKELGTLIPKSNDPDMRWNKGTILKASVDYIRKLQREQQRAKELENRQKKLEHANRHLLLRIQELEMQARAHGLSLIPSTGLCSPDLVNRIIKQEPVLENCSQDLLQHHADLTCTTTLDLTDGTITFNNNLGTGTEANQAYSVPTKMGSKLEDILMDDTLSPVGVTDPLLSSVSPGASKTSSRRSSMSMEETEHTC
# [5] = loss of viability in HepG2 cells – cell-based, CellTiter-Glo, cherry-picked, cytotoxicity control for Shn3 inhibitor project, dose response (AID 624134); assay type: functional
# INS1 = experiment: INS-1E survival protection against cytokine death – cell-based, luminescence, retest, dose response (AID 449756); assay type: functional; conditions: Rattus norvegicus;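 also: cell death triggered by IL-1 beta plus TNF-alpha plus IFN-gamma mixture; protective hits raise ATP signal compared with cytokine alone wells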
# [6] = reduction of Shn3 3'UTR-driven luciferase in osteoblasts – cell-based, Clone20 osteoblasts, firefly luciferase, cherry-picked, dose response (AID 624132); assay type: functional;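 also: firefly luciferase luminescence from reporter carrying the Shn3 3'UTR in osteoblasts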
# cells [7] = assay type: functional, cell-based
# Nonstructural protein 1 = Nonstructural protein 1 (Influenza A virus, UniProt Q194T2); assay type: functional, Influenza A virus (A/California/07/2009(H1N1))
# Chain of Nonstructural protein 1 (Q194T2 whole entry): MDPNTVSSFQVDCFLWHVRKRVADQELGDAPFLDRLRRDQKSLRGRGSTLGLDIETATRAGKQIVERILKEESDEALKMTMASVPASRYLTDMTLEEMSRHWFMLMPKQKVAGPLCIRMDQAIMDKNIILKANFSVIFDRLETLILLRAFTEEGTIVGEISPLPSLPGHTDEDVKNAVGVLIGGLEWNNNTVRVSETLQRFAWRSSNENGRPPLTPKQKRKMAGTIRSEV
# [8] = Luminescence Cell-Based Dose Response HTS to Identify Inhibitors of 5'UTR Stem-Loop Driven Prion Protein mRNA Translation in H4 Neuroglioblastoma Cells. [Related pubchem assays: 1827 (Project Summary), 1813 (Primary HTS)]; assay type: functional
# [9] = non-specific 3'UTR reporter inhibition in Clone20-Shn3RL – cell-based, Renilla luciferase, cherry-picked, counter-screen for Shn3 inhibitor project, dose response (AID 624133); assay type: functional
# [10] = fluconazole-exposed Candida albicans growth modulators – fluorescence, retest, confirmation (AID 2467); assay type: functional, cell-based
# [11] = NIH-3T3 fibroblast cytotoxicity, dose response, cytotoxicity control, cell-based, fluorescence, Alamar Blue, secondary assay (AID 2327); assay type: functional;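 also: NIH-3T3 mouse fibroblasts cultured with fluconazole at 8 µg/mL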
# [12] = alpha-synuclein stem-loop luciferase translation blockers – H4 neuroglioma cells, luminescence, confirmation (AID 1988); assay type: functional, cell-based
# [13] = luciferase reporter signal suppression in cells – H4 neuroglioma cells, luminescence, dose response (AID 1990); assay type: functional, cell-based
# cells [14] = assay type: functional, cell-based; remark: listed apart in the source
# [15] = OVCAR-3 cell viability loss – plate reader, dry powder samples, PAX8 inhibitor project, dose response (AID 743044); assay type: functional, cell-based
# Paired box protein Pax-8 = Paired box protein Pax-8 (Homo sapiens, UniProt Q06710); experiment: PAX8 transcriptional activity inhibition in RMG-I – RMG-I cells, luciferase, cherry-pick, dose response (AID 687027); assay type: functional, cell-based;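 also: luciferase reporter driven by Pax8 target thyroperoxidase promoter measured by SteadyGlo luminescence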
# Chain of Paired box protein Pax-8 (Q06710 whole entry, the tested form may be a part): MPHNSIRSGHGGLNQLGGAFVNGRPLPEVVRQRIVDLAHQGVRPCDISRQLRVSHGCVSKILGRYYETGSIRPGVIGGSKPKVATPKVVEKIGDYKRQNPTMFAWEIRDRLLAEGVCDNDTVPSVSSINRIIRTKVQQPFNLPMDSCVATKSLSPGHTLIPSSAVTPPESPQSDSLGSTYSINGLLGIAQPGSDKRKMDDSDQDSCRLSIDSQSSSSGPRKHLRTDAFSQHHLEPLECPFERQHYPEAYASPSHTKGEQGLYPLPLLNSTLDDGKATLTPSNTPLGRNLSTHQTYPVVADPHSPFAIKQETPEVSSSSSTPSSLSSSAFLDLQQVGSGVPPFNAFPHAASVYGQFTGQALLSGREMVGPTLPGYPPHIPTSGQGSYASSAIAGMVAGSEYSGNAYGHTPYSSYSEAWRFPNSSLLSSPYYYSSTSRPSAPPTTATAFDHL
# [16] = HIV-1 AD8 envelope cell-cell fusion blockers – cherry-pick, dose response (AID 652062); assay type: functional, cell-based;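 also: luciferase signal from cell-cell fusion driven by HIV-1 clade B AD8 Env; potency is for inhibitors of fusion seen as a drop in luminescence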
# [17] = blockers of HIV-1 envelope-mediated cell-cell fusion – cherry-pick, dose response (AID 652057); assay type: functional, cell-based
# [18] = biological target: T3, Polyadenylate-binding protein 1 (Homo sapiens, UniProt P11940); experiment: MLLE domain peptide-binding blockers, IC50 – biochemical, fluorescence polarization, FITC-PAM2 peptide, dose response (AID 602259); assay type: functional; conditions: read-out: IC50_Mean
# T3 sequence (P11940 whole entry, the tested form may be a part): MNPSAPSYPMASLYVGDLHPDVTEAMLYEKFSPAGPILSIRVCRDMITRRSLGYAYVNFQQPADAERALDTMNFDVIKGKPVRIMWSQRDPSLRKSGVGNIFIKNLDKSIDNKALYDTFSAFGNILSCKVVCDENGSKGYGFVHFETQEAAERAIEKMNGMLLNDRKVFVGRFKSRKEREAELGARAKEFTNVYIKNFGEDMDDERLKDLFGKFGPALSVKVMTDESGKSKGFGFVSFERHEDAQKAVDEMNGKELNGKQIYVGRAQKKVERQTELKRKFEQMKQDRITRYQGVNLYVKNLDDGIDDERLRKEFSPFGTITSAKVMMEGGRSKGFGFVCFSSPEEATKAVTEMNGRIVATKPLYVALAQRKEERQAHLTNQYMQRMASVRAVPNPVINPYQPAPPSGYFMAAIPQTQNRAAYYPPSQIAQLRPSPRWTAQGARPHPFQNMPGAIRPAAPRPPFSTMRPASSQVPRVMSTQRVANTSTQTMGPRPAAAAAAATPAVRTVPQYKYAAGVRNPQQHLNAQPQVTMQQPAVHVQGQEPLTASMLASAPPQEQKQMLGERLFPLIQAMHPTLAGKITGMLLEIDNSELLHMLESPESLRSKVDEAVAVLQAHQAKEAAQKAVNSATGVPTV
# [19] = biological target: T3, Polyadenylate-binding protein 1; experiment: MLLE binding blockers, Cy5 peptide tracer – biochemical, fluorescence polarization, Cy5-PAM2 peptide, secondary, miRNA deadenylation inhibitor project, dose response (AID 602260); assay type: functional; conditions: read-out: IC50_Mean
# Genome polyprotein = Genome polyprotein (dengue virus type 2, UniProt P29990); experiment: flavivirus cap methylation enzyme inhibition – biochemical, confirmation dose response, primary screen (AID 588689); assay type: functional
# Chain of Genome polyprotein (P29990 2492-3391 limits assumed): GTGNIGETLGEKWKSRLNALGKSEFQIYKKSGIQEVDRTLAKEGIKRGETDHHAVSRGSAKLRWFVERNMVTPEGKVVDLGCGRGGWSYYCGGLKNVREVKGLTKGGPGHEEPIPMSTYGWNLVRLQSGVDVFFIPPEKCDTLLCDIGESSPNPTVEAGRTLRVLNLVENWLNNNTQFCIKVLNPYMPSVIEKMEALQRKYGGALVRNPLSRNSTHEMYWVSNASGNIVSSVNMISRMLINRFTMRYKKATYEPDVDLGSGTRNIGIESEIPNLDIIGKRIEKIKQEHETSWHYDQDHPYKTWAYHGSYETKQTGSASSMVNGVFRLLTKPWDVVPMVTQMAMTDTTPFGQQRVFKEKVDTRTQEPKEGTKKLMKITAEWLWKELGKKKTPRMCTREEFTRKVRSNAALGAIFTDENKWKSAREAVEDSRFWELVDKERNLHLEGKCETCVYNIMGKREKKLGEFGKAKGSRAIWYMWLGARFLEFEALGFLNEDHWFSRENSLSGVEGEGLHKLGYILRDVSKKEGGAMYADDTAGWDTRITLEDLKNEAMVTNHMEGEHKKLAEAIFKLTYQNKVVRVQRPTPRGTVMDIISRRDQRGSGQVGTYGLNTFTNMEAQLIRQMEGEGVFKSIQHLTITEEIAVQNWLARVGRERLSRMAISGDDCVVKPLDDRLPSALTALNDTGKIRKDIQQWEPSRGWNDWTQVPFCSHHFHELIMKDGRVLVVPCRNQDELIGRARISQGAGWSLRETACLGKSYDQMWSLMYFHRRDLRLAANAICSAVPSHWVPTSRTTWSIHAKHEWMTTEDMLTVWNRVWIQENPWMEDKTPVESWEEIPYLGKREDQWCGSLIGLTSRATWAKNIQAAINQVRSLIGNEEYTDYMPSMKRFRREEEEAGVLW
# [20] = OVCAR8 cell viability loss – plate reader, dry powder samples, PAX8 project, dose response (AID 743197); assay type: functional, cell-based; conditions: OVCAR-8
# BJ [21] = experiment: cells; assay type: functional, cell-based; conditions: Homo sapiens
# [22] = DRD fibroblast viability loss – cell-based, non-viral oncogenic, luminescence, dose response (AID 1934); assay type: functional; conditions: Homo sapiens
# BJ [23] = experiment: BJ-TERT fibroblast viability loss – cell-based, RAS-independent, luminescence, dose response (AID 1933); assay type: functional; conditions: Homo sapiens
# BJ [24] = experiment: BJ-TERT-LT-ST fibroblast viability loss – cell-based, RAS-independent, luminescence, dose response (AID 1935); assay type: functional; conditions: Homo sapiens;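 also: BJ fibroblasts immortalized with TERT plus LT and ST oncogenes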
# Chain of Cytochrome P450 3A4 (P08684 whole entry): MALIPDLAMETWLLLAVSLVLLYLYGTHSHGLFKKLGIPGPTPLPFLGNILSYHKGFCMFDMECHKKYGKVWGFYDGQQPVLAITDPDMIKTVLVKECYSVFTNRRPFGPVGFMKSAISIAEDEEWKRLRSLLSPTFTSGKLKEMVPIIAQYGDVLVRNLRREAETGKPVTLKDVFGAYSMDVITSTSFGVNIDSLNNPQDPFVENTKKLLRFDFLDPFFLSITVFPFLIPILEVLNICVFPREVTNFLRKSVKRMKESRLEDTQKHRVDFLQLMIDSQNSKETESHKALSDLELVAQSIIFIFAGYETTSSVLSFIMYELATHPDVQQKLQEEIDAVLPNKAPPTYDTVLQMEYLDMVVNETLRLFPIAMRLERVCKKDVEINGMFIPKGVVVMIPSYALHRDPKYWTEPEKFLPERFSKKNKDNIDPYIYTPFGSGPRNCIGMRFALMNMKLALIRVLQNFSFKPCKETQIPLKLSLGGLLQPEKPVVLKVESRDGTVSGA
smiles,measurement,setting,value
COc1c(CC=C(C)C)c2c(c3oc(=O)c(-c4ccc(O)cc4)c(O)c13)C=CC(C)(C)O2 [SCANDENIN],AC50,Cytochrome P450 3A4,20 µM (inconclusive)
O=C1[C@@H]2C(c3cccnc3)=NO[C@@H]2C(=O)N1c1ccc(Br)cc1,AC50,[1],5.67 µM (active)
C[C@H](CO)N1C[C@H](C)[C@@H](CN(C)Cc2ccc(Oc3ccccc3)cc2)Oc2c(NC(=O)Nc3ccccc3)cccc2C1=O,AC50,[2],2.17 µM (active)
CCC1C=C(c2ccccc2)C=CN=C1N(CC)CC (stereo not drawn),EC50,[3],4.22 µM (active)
CCCCNC(=O)Nc1ccc(C2SCCS2)cc1,AC50,[4],35.3 µM (active)
Oc1c(C(Nc2cccc(C(F)(F)F)c2)c2ccncc2)ccc2cccnc12 (stereo not drawn),AC50,[5],7.21 µM (active)
same,AC50,INS1,3.82 µM (active)
same,AC50,[1],6.48 µM (active)
same,AC50,[6],5.8 µM (active)
same,EC50,cells [7],9.32 µM (active)
same,IC50,Nonstructural protein 1,8.76 µM (active)
same,EC50,[8],15.3 µM (active)
same,AC50,[9],6.9 µM (active)
same,EC50,[10],3.42 µM (active)
same,EC50,[11],18.3 µM (active)
same,EC50,[12],9.42 µM (active)
same,EC50,[13],11.9 µM (active)
same,EC50,cells [14],> 350 µM (not active)
C[C@@H]1CN([C@H](C)CO)C(=O)c2cc(NC(=O)Nc3ccc(C(F)(F)F)cc3)ccc2O[C@@H](C)CCCCO[C@H]1CN(C)S(=O)(=O)c1ccccc1,AC50,[15],31.8 µM (active)
same,AC50,Paired box protein Pax-8,2.23 µM (active)
O=C(O)c1sccc1S(=O)(=O)Nc1ccc(Cl)cc1,AC50,Cytochrome P450 3A4,7.94 µM (inconclusive)
C[C@H](CO)N1C[C@H](C)[C@H](CN(C)C(=O)C2CC2)OCc2ccccc2-c2c(n(C)c3ccccc23)C1=O,AC50,[16],0.836 µM (active)
same,AC50,[17],0.426 µM (active)
C[C@H]1CN([C@@H](C)CO)C(=O)Cc2cc(NC(=O)Nc3ccccc3)ccc2O[C@H]1CN(C)Cc1ccc(C(=O)Nc2ccccc2N)cc1,AC50,[2],2.93 µM (active)
Cc1cc(C(=O)N/N=C\c2cc(C(C)(C)C)ccc2O)[nH]n1,EC50,[3],6.68 µM (active)
COC(=O)[C@@H]1C[C@@]2(O)[C@@H](O)[C@@H](O)[C@@H](O)C[C@H]2N1Cc1cc(F)ccc1F,AC50,Cytochrome P450 3A4,25.1 µM (inconclusive)
Cc1ccc([N+](=O)[O-])cc1N,AC50,Cytochrome P450 3A4,31.6 µM (inconclusive)
N#Cc1c(N)sc(=S)c2c1CCCC2,IC50,[18],57.4 µM (inactive)
same,IC50,[19],> 66 µM (inactive)
same,IC50,Genome polyprotein,90.8 µM (active)
C[C@H](CO)N1C[C@H](C)[C@H](CN(C)Cc2ccc(C(F)(F)F)cc2)OCCCC[C@H](C)Oc2ccc(NS(=O)(=O)c3ccc(F)cc3)cc2C1=O,AC50,[15],53.3 µM (active)
same,AC50,[20],58.2 µM (active)
same,AC50,Paired box protein Pax-8,7.71 µM (active)
O=C(NC(=S)NNC(=O)c1cnccn1)c1ccc(Cl)cc1,EC50,BJ [21],> 150 µM (not active)
same,EC50,[22],25.5 µM (active)
same,EC50,BJ [23],22.8 µM (active)
same,EC50,BJ [24],> 150 µM (not active)
same,IC50,Nonstructural protein 1,3.01 µM (active)
same,EC50,[8],9.78 µM (active)
same,EC50,[10],1.69 µM (active)
same,EC50,[11],5.78 µM (active)
same,EC50,[12],9.3 µM (active)
same,EC50,[13],11.9 µM (active)
